Experimental data published in publication PMC8940841, “A metabolically stable PET tracer for imaging synaptic vesicle protein 2A: synthesis and preclinical characterization of [^18F]SDM-16” (European Journal of Nuclear Medicine and Molecular Imaging, 2021).
Where two headings read alike, the source gives them in different places.

Key:
SV2A [1] = system: SV2A
Experimental: (§1) A total of 10 PET imaging experiments with [^18F]SDM-16 were performed in rhesus monkeys (Macaca mulatta) according to a protocol approved by the Yale University Institutional Animal Care and Use Committee (IACUC). Four monkeys were studied. […] Body temperature was maintained by a water-jacket heating pad. The animal was attached to a physiological monitor, and vital signs (heart rate, blood pressure, respirations, SPO2, EKG, ETCO2, and body temperature) were continuously monitored. A venous line was inserted in one limb for administration of radiotracer, displacement, and blocking drugs. A catheter was placed in the femoral artery in the other limb for blood sampling. Dynamic PET brain scans were performed on a Focus 220 system (Siemens Medical Solutions, Knoxville, TN, USA) with a reconstructed image resolution of approximately 1.5 mm. After a 9-min transmission scan, the radioligand was injected i.v. over 3 min. by an infusion pump. Dynamic PET scans were performed for 3 h (baseline and blocking scans) or 4 h (displacement scan).
(§2) PET images were reconstructed with built-in corrections for attenuation, normalization, scatter, randoms, and deadtime. PET brain images were registered to the animal’s MR image, which was subsequently registered to a brain atlas to define the regions of interest. Dynamic images were reconstructed using a Fourier rebinning and filtered back projection algorithm. A rhesus monkey brain atlas was used for generation of regions of interest (ROIs) and time − activity curves (TACs) for the following ROIs: amygdala, brain stem, caudate nucleus, centrum semiovale (CS), cerebellum, cingulate cortex, frontal cortex, globus pallidus, hippocampus, insula, nucleus accumbens, occipital cortex, pons, putamen, substantia nigra, temporal cortex, and thalamus.
(§3) Volume of distribution (VT, mL·cm^−3) values and the first-order kinetic rate constants of tracer (K1) were derived through 1-tissue (1T) compartment kinetic modeling with the metabolite-corrected arterial plasma input function, which was calculated as the product of the fitted total plasma curve and the parent radiotracer fraction curve. Nondisplaceable volume of distribution (VND) and SV2A occupancy by LEV was calculated using the Lassen plot [32]. Nondisplaceable binding potential (BPND) values were calculated from VT values using CS as reference region, or the VND derived from the blocking study, i.e., BPND = (VT, ROI − VT, CS)/ VT, CS or BPND = (VT/VND) -1.

SV2A [2] = experiment: Brain PET imaging with 1TC kinetic modeling; conditions: for VT (baseline): 1TC
Experimental: as §1, §2, §3

K1 (SV2A [2]; Amygdala): 0.10 ± 0.02 mL/cm^3 per min
VT (baseline) (SV2A [2]; Amygdala): 11.2 ± 2.0 mL/cm^3
K1 (SV2A [2]; Anterior cingulate): 0.15 ± 0.01 mL/cm^3 per min
K1 (SV2A [2]; Brainstem): 0.14 ± 0.02 mL/cm^3 per min
VT (baseline) (SV2A [2]; Brainstem): 14.1 ± 1.7 mL/cm^3
K1 (SV2A [2]; Caudate): 0.13 ± 0.02 mL/cm^3 per min
VT (baseline) (SV2A [2]; Centrum semiovale): 6.6 ± 0.9 mL/cm^3
K1 (SV2A [2]; Cerebellum): 0.18 ± 0.02 mL/cm^3 per min
K1 (SV2A [2]; Cingulate cortex): 0.15 ± 0.00 mL/cm^3 per min
VT (baseline) (SV2A [2]; Cingulate cortex): 31.3 ± 7.8 mL/cm^3
K1 (SV2A [2]; Frontal cortex): 0.14 ± 0.00 mL/cm^3 per min
VT (baseline) (SV2A [2]; Frontal cortex): 27.9 ± 6.8 mL/cm^3
K1 (SV2A [2]; Globus pallidus): 0.11 ± 0.01 mL/cm^3 per min
VT (baseline) (SV2A [2]; Globus pallidus): 17.2 ± 3.5 mL/cm^3
K1 (SV2A [2]; Hippocampus): 0.12 ± 0.02 mL/cm^3 per min
VT (baseline) (SV2A [2]; Hippocampus): 17.9 ± 2.5 mL/cm^3
K1 (SV2A [2]; Insular cortex): 0.14 ± 0.01 mL/cm^3 per min
VT (baseline) (SV2A [2]; Insular cortex): 29.8 ± 8.0 mL/cm^3
K1 (SV2A [2]; Mean ± SD over brain regions): 0.14 ± 0.03 mL/cm^3 per min
K1 (SV2A [2]; Nucleus accumbens): 0.13 ± 0.01 mL/cm^3 per min
VT (baseline) (SV2A [2]; Nucleus accumbens): 29.4 ± 8.5 mL/cm^3
K1 (SV2A [2]; Occipital cortex): 0.18 ± 0.02 mL/cm^3 per min
VT (baseline) (SV2A [2]; Occipital cortex): 29.5 ± 5.5 mL/cm^3
K1 (SV2A [2]; Putamen): 0.16 ± 0.02 mL/cm^3 per min
K1 (SV2A [2]; Temporal cortex): 0.14 ± 0.01 mL/cm^3 per min
VT (baseline) (SV2A [2]; Temporal cortex): 27.3 ± 5.7 mL/cm^3
K1 (SV2A [2]; Thalamus): 0.14 ± 0.02 mL/cm^3 per min
SUV (brain tracer uptake) (SV2A [2]; baseline scan, end of scan, frontal cortex and putamen): about 10
averaged VT as percent of that of [^11C]UCB-A (SV2A [2]; rhesus monkey, in vivo): 59%
regional K1 lower than [^11C]UCB-J (SV2A [2]; rhesus monkey, in vivo): 82%
regional K1 lower than [^18F]SynVesT-1 (SV2A [2]; rhesus monkey, in vivo): 86%
in vivo defluorination (radioactivity in skull) (SV2A [2]; up to 4-h p.i.): lack of in vivo defluorination
SMILES: Cc1nccn1CN1C[C@@H](c2cc(F)cc([18F])c2)CC1=O [[^18F]SDM-16, (R)-4-(3-fluoro-5-(fluoro-^18F)phenyl)-1-((2-methyl-1H-imidazol-1-yl)methyl)pyrrolidin-2-one]
regional BPND range, CS as reference region (SV2A [1]): 0.69-3.90
regional BPND range, VND method (SV2A [1]): 2.9-15.1
BPND, VND method (SV2A [1]; Amygdala): 2.92 ± 0.25
BPND, VT(CS) method (SV2A [1]; Amygdala): 0.69 ± 0.23
BPND, VND method (SV2A [1]; Anterior cingulate): 15.13 ± 4.21
BPND, VT(CS) method (SV2A [1]; Anterior cingulate): 3.90 ± 1.38
BPND, VND method (SV2A [1]; Brainstem): 4.93 ± 0.15
BPND, VT(CS) method (SV2A [1]; Brainstem): 1.14 ± 0.24
BPND, VND method (SV2A [1]; Caudate): 8.76 ± 0.68
BPND, VT(CS) method (SV2A [1]; Caudate): 2.27 ± 0.68
BPND, VND method (SV2A [1]; Cerebellum): 9.47 ± 0.65
BPND, VT(CS) method (SV2A [1]; Cerebellum): 2.28 ± 0.53
BPND, VND method (SV2A [1]; Cingulate cortex): 14.97 ± 0.28
BPND, VT(CS) method (SV2A [1]; Cingulate cortex): 3.77 ± 1.28
BPND, VND method (SV2A [1]; Frontal cortex): 12.72 ± 0.76
BPND, VT(CS) method (SV2A [1]; Frontal cortex): 3.24 ± 1.07
BPND, VND method (SV2A [1]; Globus pallidus): 6.60 ± 0.33
BPND, VT(CS) method (SV2A [1]; Globus pallidus): 1.61 ± 0.42
BPND ratio [^18F]SDM-16/[^11C]UCB-J (SV2A [1]; Guo plot): 1.41
BPND ratio [^18F]SDM-16/[^18F]SynVesT-1 (SV2A [1]; Guo plot): 0.99
BPND, VND method (SV2A [1]; Hippocampus): 6.55 ± 0.97
BPND, VT(CS) method (SV2A [1]; Hippocampus): 1.72 ± 0.44
BPND, VND method (SV2A [1]; Insular cortex): 13.77 ± 1.93
BPND, VT(CS) method (SV2A [1]; Insular cortex): 3.54 ± 1.31
BPND, VND method (SV2A [1]; Nucleus accumbens): 14.51 ± 0.23
BPND, VT(CS) method (SV2A [1]; Nucleus accumbens): 3.48 ± 1.35
BPND, VND method (SV2A [1]; Occipital cortex): 12.62 ± 1.09
BPND, VT(CS) method (SV2A [1]; Occipital cortex): 3.49 ± 0.90
BPND, VND method (SV2A [1]; Putamen): 11.50 ± 0.8
BPND, VT(CS) method (SV2A [1]; Putamen): 3.00 ± 1.00
BPND, VND method (SV2A [1]; Temporal cortex): 12.06 ± 0.54
BPND, VT(CS) method (SV2A [1]; Temporal cortex): 3.15 ± 0.52
BPND, VND method (SV2A [1]; Thalamus): 9.46 ± 0.19
BPND, VT(CS) method (SV2A [1]; Thalamus): 2.29 ± 0.72
BPND with CS VT lower than BPND with VND (SV2A [1]; average): 67%
